Test system: neointima formation
Experiment: not given
Conditions: rats; cited from earlier work

| SMILES | inhibition of neointima formation |
| --- | --- |
| COc1ccc(CNc2nc(N(CCO)CCO)nc3c2ncn3C(C)C)cc1 [CVT-313] | greater than 80% |

Target: Cdk9/cyclinT1 (Homo sapiens, UniProt P50750)
Experiment: Cdk9/CyclinT1 IMAP assay
Conditions: not given

Cdk9/cyclinT1, sequence (P50750 whole entry): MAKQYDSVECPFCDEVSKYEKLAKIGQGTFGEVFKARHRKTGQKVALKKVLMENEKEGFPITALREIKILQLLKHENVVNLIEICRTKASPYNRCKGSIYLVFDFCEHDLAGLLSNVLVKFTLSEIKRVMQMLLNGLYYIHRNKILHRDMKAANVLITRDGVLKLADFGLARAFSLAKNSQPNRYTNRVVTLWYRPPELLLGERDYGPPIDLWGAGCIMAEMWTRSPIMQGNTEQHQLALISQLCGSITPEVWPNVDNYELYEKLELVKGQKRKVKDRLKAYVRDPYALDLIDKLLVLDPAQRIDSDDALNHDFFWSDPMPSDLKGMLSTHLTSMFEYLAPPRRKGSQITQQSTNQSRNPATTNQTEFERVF
Cdk9/cyclinT1, sequence (O60563 whole entry partner): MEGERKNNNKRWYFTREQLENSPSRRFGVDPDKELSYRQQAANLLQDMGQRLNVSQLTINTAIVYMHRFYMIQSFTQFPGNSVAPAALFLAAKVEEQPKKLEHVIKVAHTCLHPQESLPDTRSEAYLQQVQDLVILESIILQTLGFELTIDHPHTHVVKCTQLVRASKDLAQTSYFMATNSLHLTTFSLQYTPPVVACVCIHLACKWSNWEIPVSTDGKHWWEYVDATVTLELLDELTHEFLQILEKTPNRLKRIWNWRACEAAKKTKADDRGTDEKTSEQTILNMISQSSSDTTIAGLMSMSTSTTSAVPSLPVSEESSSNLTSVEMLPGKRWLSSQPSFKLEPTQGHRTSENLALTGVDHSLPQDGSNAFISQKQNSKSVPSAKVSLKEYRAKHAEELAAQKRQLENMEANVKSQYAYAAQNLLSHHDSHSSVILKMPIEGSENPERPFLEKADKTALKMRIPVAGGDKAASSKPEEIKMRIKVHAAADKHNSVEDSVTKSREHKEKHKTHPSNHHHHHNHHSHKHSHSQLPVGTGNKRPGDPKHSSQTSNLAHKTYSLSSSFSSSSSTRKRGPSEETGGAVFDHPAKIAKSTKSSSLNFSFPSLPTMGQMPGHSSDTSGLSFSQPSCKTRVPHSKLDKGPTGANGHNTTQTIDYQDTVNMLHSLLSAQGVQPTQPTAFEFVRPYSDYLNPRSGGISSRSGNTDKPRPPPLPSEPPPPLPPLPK

| IC50 | SMILES |
| --- | --- |
| < 8 nM | N[C@H]1CC[C@H](Nc2cc(-c3cncc(NCc4cc(F)cc(F)c4)c3)c(Cl)cn2)CC1 [Compound 64] |
| < 8 nM | Clc1cnc(N[C@H]2CC[C@H](NC[C@@H]3CCCO3)CC2)cc1-c1cc(NCC2CCOCC2)cnc1Cl [Compound 65] |
| 1490 nM | Fc1cccc(CNc2cc(-c3cc(NC4CCCC4)ncc3Cl)cnc2N2CCOCC2)c1 [Compound 66] |
| 335 nM | C[C@@H](CO)Nc1cc(-c2cncc(NCC3CCOCC3)c2)c(Cl)cn1 [Compound 67] |
| 820 nM | OCCNc1cc(-c2cncc(NCC3CCOCC3)c2)c(Cl)cn1 [Compound 68] |
| < 8 nM | CN1CCC(CNc2cc(-c3cncc(NCc4cccc(F)c4)c3)c(Cl)cn2)CC1 [Compound 69] |
| 9 nM | Fc1cccc(CNc2cncc(-c3cc(NCC4CCOCC4)ncc3Cl)c2)c1 [Compound 70] |
| < 8 nM | N[C@H]1CC[C@H](Nc2cc(-c3cncc(NCc4ccncc4)c3)c(Cl)cn2)CC1 [Compound 71] |
| 7 nM | CO[C@H](CN[C@H]1CC[C@H](Nc2cc(-c3cc(NCC4CCOCC4)cnc3Cl)c(Cl)cn2)CC1)C(F)(F)F [Compound 72, 2,5′-dichloro-N5-((tetrahydro-2H-pyran-4-yl)methyl)-N2′-(trans-4-((R)-3,3,3-trifluoro-2-methoxypropylamino)cyclohexyl)-3,4′-bipyridine-2′,5-diamine] |
| 2 nM | O[C@@H](CN[C@H]1CC[C@H](Nc2cc(-c3cc(NCC4CCOCC4)cnc3Cl)c(Cl)cn2)CC1)C(F)(F)F [Compound 73] |
| 1 nM | O[C@H](CN[C@H]1CC[C@H](Nc2cc(-c3cc(NCC4CCOCC4)cnc3Cl)c(Cl)cn2)CC1)C(F)(F)F [Compound 74, (R)-3-(trans-4-(2,5′-dichloro-5-((tetrahydro-2H-pyran-4-yl)methyl)amino-3,4′-bipyridin-2′-ylamino)cyclohexylamino)-1,1,1-trifluoropropan-2-ol] |
| 35 nM | Clc1cnc(N[C@H]2CC[C@H](N3CCCC3)CC2)cc1-c1cc(NCC2CCOCC2)cnc1Cl [Compound 76, 2,5′-dichloro-N2′-(trans-4-(pyrrolidin-1-yl)cyclohexyl)-N5-((tetrahydro-2H-pyran-4-yl)methyl)-3,4′-bipyridine-2′,5-diamine] |
| < 8 nM | N[C@H]1CC[C@H](Nc2cc(-c3cnc(Cl)c(NCC4CCOCC4)c3)c(Cl)cn2)CC1 [Compound 77, N2′-(trans-4-aminocyclohexyl)-5′,6-dichloro-N5-((tetrahydro-2H-pyran-4-yl)methyl)-3,4′-bipyridine-2′,5-diamine] |
| < 8 nM | COCCN[C@H]1CC[C@H](Nc2cc(-c3cnc(Cl)c(NCC4CCOCC4)c3)c(Cl)cn2)CC1 [Compound 78, 5′,6-dichloro-N2′-(trans-4-(2-methoxyethylamino)cyclohexyl)-N5-((tetrahydro-2H-pyran-4-yl)methyl)-3,4′-bipyridine-2′,5-diamine] |
| < 8 nM | N[C@H]1CC[C@H](Nc2cc(-c3cc(NCC4CCOCC4)cnc3Cl)c(Cl)cn2)CC1 [Compound 79] |
| < 8 nM | OC[C@H]1CC[C@H](Nc2cc(-c3cnc(Cl)c(NCC4CCOCC4)c3)c(Cl)cn2)CC1 [Compound 80] |
| 45 nM | Clc1cnc(N[C@H]2CC[C@H](N3CCCC3)CC2)cc1-c1cnc(Cl)c(NCC2CCOCC2)c1 [Compound 81] |
| < 8 nM | COCCN[C@H]1CC[C@H](Nc2cc(-c3cncc(NCc4cccc(F)c4)c3)c(Cl)cn2)CC1 [Compound 82] |
| < 8 nM | NC[C@H]1CC[C@H](Nc2cc(-c3cnc(Cl)c(NCC4CCOCC4)c3)c(Cl)cn2)CC1 [Compound 83] |
| < 8 nM | Fc1cccc(CNc2cncc(-c3cc(N[C@H]4CC[C@H](N5CCCC5)CC4)ncc3Cl)c2)c1 [Compound 84] |
| 96 nM | COc1ncc(-c2cc(N[C@H]3CC[C@H](N)CC3)ncc2Cl)cc1NCC1CCOCC1 [Compound 85] |
| < 8 nM | O[C@H]1CC[C@H](Nc2cc(-c3cnc(Cl)c(NCC4CCOCC4)c3)c(Cl)cn2)CC1 [Compound 86] |
| 420 nM | N[C@H]1CC[C@H](Nc2cc(-c3cnc(O)c(NCC4CCOCC4)c3)c(Cl)cn2)CC1 [Compound 87, 2′-(trans-4-aminocyclohexylamino)-5′-chloro-5-((tetrahydro-2H-pyran-4-yl)methyl)amino-3,4′-bipyridin-6-ol] |
| < 1 nM | N[C@H]1CC[C@H](Nc2cc(-c3cncc(OCc4cccc(F)c4)c3)c(Cl)cn2)CC1 [Compound 88] |
| < 1 nM | NC[C@H]1CC[C@H](Nc2cc(-c3cncc(OCc4cccc(F)c4)c3)c(Cl)cn2)CC1 [Compound 89] |
| 2.8 nM | O[C@H]1CCCC[C@@H]1N[C@H]1CC[C@H](Nc2cc(-c3cc(NCC4CCOCC4)cnc3Cl)c(Cl)cn2)CC1 [Compound 90] |
| 2.7 nM | O[C@H]1CCCC[C@@H]1N[C@H]1CC[C@H](Nc2cc(-c3cnc(Cl)c(NCC4CCOCC4)c3)c(Cl)cn2)CC1 [Compound 91] |
| 1.8 nM | O[C@H]1CCCC[C@@H]1N[C@H]1CC[C@H](Nc2cc(-c3cnc(F)c(NCC4CCOCC4)c3)c(Cl)cn2)CC1 [Compound 92] |
